These results are taken from paper PMC8151276, “An Integrated Approach toward NanoBRET Tracers for Analysis of GPCR Ligand Engagement” (Molecules, 2021).

One test concerns the target T1, LGR5 (Homo sapiens, UniProt O75473).
T1 construct: purchased Promega (in-house HiBiT-GPCR construct library, NanoBRET)
T1 sequence (O75473 22-907): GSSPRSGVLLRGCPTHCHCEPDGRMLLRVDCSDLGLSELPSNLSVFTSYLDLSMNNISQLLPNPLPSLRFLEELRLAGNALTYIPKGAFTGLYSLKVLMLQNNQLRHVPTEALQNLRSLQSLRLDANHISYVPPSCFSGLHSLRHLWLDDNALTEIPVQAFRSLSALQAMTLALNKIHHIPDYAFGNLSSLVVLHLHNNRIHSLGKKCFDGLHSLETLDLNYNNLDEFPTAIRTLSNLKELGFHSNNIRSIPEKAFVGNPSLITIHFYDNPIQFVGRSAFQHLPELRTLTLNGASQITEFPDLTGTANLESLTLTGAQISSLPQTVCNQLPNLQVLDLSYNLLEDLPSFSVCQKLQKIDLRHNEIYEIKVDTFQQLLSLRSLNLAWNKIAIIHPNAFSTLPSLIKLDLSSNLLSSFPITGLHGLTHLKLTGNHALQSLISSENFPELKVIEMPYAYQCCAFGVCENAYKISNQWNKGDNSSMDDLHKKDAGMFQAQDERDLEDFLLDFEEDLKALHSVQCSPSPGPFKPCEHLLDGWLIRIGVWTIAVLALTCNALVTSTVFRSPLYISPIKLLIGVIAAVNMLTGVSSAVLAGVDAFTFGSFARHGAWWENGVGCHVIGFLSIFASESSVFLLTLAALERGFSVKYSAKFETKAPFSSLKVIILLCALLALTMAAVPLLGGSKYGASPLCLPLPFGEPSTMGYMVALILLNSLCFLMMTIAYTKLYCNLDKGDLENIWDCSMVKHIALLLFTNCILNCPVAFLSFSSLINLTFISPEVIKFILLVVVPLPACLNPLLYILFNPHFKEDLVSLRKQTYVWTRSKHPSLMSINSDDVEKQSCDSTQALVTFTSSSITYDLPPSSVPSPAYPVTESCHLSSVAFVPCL
Description: NanoBRET screen HiBiT-LGR5 in HEK293. It counts as binding. As for the experimental part: (§1) Each tracer candidate was screened across the entire library of HiBiT-GPCR constructs using NanoBRET as the detection modality. As depicted in Figure 4A, the specificity of interactions was evaluated through decrease in BRET due to competitive displacement of a bound tracer by excess parental compound. Each tracer was analyzed for binding to each HiBiT-GPCR fusion in the absence and in the presence of competing parental compound. Briefly, HEK293 cells were transfected with HiBiT-GPCR constructs diluted into promoterless DNA to reduce expression and maximize translocation to the cell surface. Each tracer candidate was then screened at concentrations of 1 μM and 0.1 μM across cells expressing these fusions. Cells were treated for 1.5 h with tracer either alone or in the presence of 20 μM competing parental compound (i.e., control). BRET was measured upon addition of purified LgBiT and subsequent complementation with HiBiT genetically fused to a GPCR. The specificity of interactions was assessed through a decrease in BRET signal due to competitive displacement of the bound tracer. To further gauge the robustness of these interactions, the fold response over the control (i.e., BRETtracer/BRETcontrol) was calculated. We chose a 1.5-fold response, which translates to ≥7-fold signal over noise as the minimal threshold required to score an interaction as positive.
(§2) HiBiT-GPCR DNA constructs were diluted in 10 mM Tris pH 8 to a final concentration of 0.01 μg/μL, arrayed in 96-well plates and stored at −20 °C. For transfection, HEK293 cells were suspended in Opti-MEM (without phenol red) supplemented with 2% fetal bovine serum (Seradigm) and 100 units/mL penicillin–streptomycin (Gibco) at a final concentration of 220,000 cells/mL and dispensed into white 96-well plates at 90 μL/well. Subsequent transfections and screens were carried using an Agilent Bravo Automated Liquid Handling Platform. First, the 96-well HiBiT DNA arrays were diluted 25-fold in Opti-MEM (without serum or phenol red) to a final concentration of 0.0004 μg/μL and 20 μL of the diluted DNAs were transferred into new 96-well plates. Next, promoterless carrier DNA (1 μg/μL) was diluted 25-fold (0.04 μg/μL) and then dispensed into the diluted arrays at 20 μL/well. Following brief mixing, Viafect transfection reagent (Promega) diluted 16-fold into Opti-MEM was dispensed into the plates at 40 μL/well. After mixing by pipetting, plates were incubated for 10 min on the pipetting station deck. The DNA-transfection reagent complexes were then added to plates containing cells. To facilitate the screen, 10 μL of DNA-transfection reagent complexes were added in duplicates to the top 4 and bottom 4 rows, resulting in two identical 48-well arrays per plate. Plates with transfected cells were incubated for 18–20 h at 37 °C/5% CO2. A screen of each tracer across the entire library using two different concentrations requires duplicate plates of transfected cells. Depending on the number of tracers being screened, transfections can be scaled up using the same ratios. The next day, for each tracer, four 20× screening solutions in tracer dilution buffer (Promega) were prepared: two duplicates at final concentration of 20 μM and two duplicates at a final concentration of 2 μM. […] The four resulting solutions were diluted 4-fold in Opti-MEM without serum or phenol red to generate 5× solutions (5 µM and 0.5 µM tracer +/− 100 μM competing compound). To screen the library, a BioTek MultiFlo FX liquid dispenser was used to dispense 22.5 µL of tracer solution to the top 4 rows and 22.5 µL tracer + competing compound solution to the 4 bottom rows. Plates were briefly mixed on an orbital shaker and incubated for 1.5 h at room temperature. […] Plates were briefly mixed on an orbital shaker and incubated for 15 min to allow complementation.
On the technique in general: BRET reads energy transfer from a luciferase to a nearby fluorophore.

The next test concerns the target T2, HTR1F (Homo sapiens, UniProt P30939).
T2 construct: purchased Promega (in-house HiBiT-GPCR construct library, NanoBRET)
T2 sequence (P30939 1-366): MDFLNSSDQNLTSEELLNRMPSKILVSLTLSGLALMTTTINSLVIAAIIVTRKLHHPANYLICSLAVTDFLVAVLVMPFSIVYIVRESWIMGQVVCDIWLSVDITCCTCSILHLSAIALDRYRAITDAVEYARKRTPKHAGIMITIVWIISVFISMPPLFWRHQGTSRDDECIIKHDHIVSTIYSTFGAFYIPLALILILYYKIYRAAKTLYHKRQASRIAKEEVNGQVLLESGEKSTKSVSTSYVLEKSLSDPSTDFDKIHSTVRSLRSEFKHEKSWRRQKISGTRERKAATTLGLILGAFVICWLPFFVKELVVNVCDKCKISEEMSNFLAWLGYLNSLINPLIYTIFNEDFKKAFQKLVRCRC
Description: NanoBRET screen HiBiT-HTR1F in HEK293. It counts as binding. On the procedure: as §1, §2

In the case of `O=C(CCc1ccc2n1[B-](F)(F)[N+]1=C(c3ccc[nH]3)C=CC1=C2)NCc1ccc(C(=O)NCCOCCC(=O)N[C@@H]2CC[C@@]3(O)[C@H]4Cc5ccc(O)c6c5[C@@]3(CCN4CC3CC3)[C@H]2O6)cc1` [Naltrexone-3-NB590], the “NanoBRET Fold Response” value at LGR5 (LGR5, tracer 0.1μM) was found to be 0.41; on LGR5 (LGR5, tracer 1μM) it was 1.33; at HTR1F (HTR1F, tracer 0.1μM) it was 1.35; at HTR1F (HTR1F, tracer 1μM), 1.30.

As for `CN1CCN(C2=Nc3cc(Cl)ccc3N(CC(=O)NCCOCCOCCOCCOCCNC(=O)CCc3ccc4n3[B-](F)(F)[N+]3=C(c5ccc[nH]5)C=CC3=C4)c3ccccc32)CC1` [Clozapine-c-2-NB590], the “NanoBRET Fold Response” value turned out to be 0.83 at LGR5 (LGR5, 1μM tracer); 1.02 on HTR1F (HTR1F, 0.1μM tracer); 0.91 at HTR1F (HTR1F, 1μM tracer).

Take `O=C(CCOCCOCCOCCOCCNC(=O)CCc1ccc2n1[B-](F)(F)[N+]1=C(c3ccc[nH]3)C=CC1=C2)NCCCN1CCN(C2=Nc3cc(Cl)ccc3Nc3ccccc32)CC1` [Clozapine-a-2-NB590]: the “NanoBRET Fold Response” value worked out at 0.94 at LGR5 (LGR5, 0.1μM tracer); 0.79 on LGR5 (LGR5, 1μM tracer); 1.77 at HTR1F (HTR1F, 0.1μM tracer); 2.34 on HTR1F (HTR1F, 1μM tracer).

For the molecule `CCOC(=O)c1cc(C#N)c(N2CCC(C(=O)NS(=O)(=O)Cc3ccccc3/C=C/C(=O)NCCNC(=O)CCc3ccc4n3[B-](F)(F)[N+]3=C(c5ccc[nH]5)C=CC3=C4)CC2)nc1C` [AZD1283-1-NB590], the “NanoBRET Fold Response” value on LGR5 (LGR5, 0.1μM) came out at 0.86; at LGR5 (LGR5, 1μM) it was 0.91; at HTR1F (HTR1F, 0.1μM), 1.04; at HTR1F (HTR1F, 1μM), 1.02.

For the molecule `COc1ccc2[nH]c(-c3ccc(CNC(=O)CCOCCOCCOCCOCCNC(=O)CCc4ccc5n4[B-](F)(F)[N+]4=C(c6ccc[nH]6)C=CC4=C5)cc3)c(CCNC(C)=O)c2n1` [AzomelatoninICO9-2-NB590], the “NanoBRET Fold Response” value on LGR5 (0.1μM tracer) came to 1.35; at LGR5 (1μM tracer) it was 0.94; on HTR1F (0.1μM tracer), 0.92; on HTR1F (1μM tracer), 0.95.

Take `CCCn1c(=O)c2[nH]c(-c3ccc(OCC(=O)NCCNC(=O)CCOCCNC(=O)c4ccc(CNC(=O)CCc5ccc6n5[B-](F)(F)[N+]5=C(c7ccc[nH]7)C=CC5=C6)cc4)cc3)nc2n(CCC)c1=O` [XAC-3-NB590]: the “NanoBRET Fold Response” value on LGR5 (LGR5, tracer 0.1μM) is reported as 0.95; on LGR5 (LGR5, tracer 1μM) it was 0.89; at HTR1F (HTR1F, tracer 0.1μM) it was 1.07; on HTR1F (HTR1F, tracer 1μM), 1.05.

`COc1ccccc1N1CCN(CCCCN2C(=O)c3ccc(CNC(=O)CCOCCNC(=O)c4ccc(CNC(=O)CCc5ccc6n5[B-](F)(F)[N+]5=C(c7ccc[nH]7)C=CC5=C6)cc4)cc3C2=O)CC1` [NAN-190-3-NB590]: the “NanoBRET Fold Response” value is reported as 1.30 on LGR5 (LGR5, tracer 0.1μM); 0.72 on LGR5 (LGR5, tracer 1μM); 2.92 on HTR1F (HTR1F, tracer 0.1μM); 1.93 on HTR1F (HTR1F, tracer 1μM).

In the case of `CN(CCC=C1c2ccccc2CCc2ccccc21)C(=O)CCOCCOCCOCCOCCNC(=O)CCc1ccc2n1[B-](F)(F)[N+]1=C(c3ccc[nH]3)C=CC1=C2` [Amitriptyline-e-2-NB590], the “NanoBRET Fold Response” value on LGR5 (tracer at 1μM) was 0.85; at HTR1F (tracer at 1μM), 1.02.

Consider `O=C(CCc1ccc2n1[B-](F)(F)[N+]1=C(c3ccc[nH]3)C=CC1=C2)NCc1ccc(C(=O)NCCOCCOCCNCC(O)COc2cccc3ccccc23)cc1` (stereo not drawn) [Propranolol-3-NB590], for which the “NanoBRET Fold Response” value on LGR5 (LGR5, 0.1μM) is on record as 1.10; on LGR5 (LGR5, 1μM), 0.93; on HTR1F (HTR1F, 0.1μM), 1.08; on HTR1F (HTR1F, 1μM), 0.99.

`COc1ccc2c(n1)c(CCNC(C)=O)cn2CCNC(=O)CCc1ccc2n1[B-](F)(F)[N+]1=C(c3ccc[nH]3)C=CC1=C2` [Azamelatonin-1-NB590]: the “NanoBRET Fold Response” value on LGR5 (0.1μM tracer) came to 0.96; at LGR5 (1μM tracer), 0.96; on HTR1F (0.1μM tracer), 0.79; on HTR1F (1μM tracer), 0.79.

Take `O=C(CCOCCOCCOCCOCCNC(=O)CCc1ccc2n1[B-](F)(F)[N+]1=C(c3ccc[nH]3)C=CC1=C2)NCCCN1CCN(C2=Nc3ccccc3Oc3ccc(Cl)cc32)CC1` [Loxapine-a-2-NB590]: the “NanoBRET Fold Response” value on LGR5 (LGR5, tracer 0.1μM) was determined as 0.94; on LGR5 (LGR5, tracer 1μM), 0.97; on HTR1F (HTR1F, tracer 0.1μM), 1.01; at HTR1F (HTR1F, tracer 1μM) it was 1.07.

Take `N#CN/C(=N\CCNC(=O)c1ccc(N)cc1)NCCCOc1cccc(CN2CCCCC2)c1` [Aminopotentidine (unmodified)]: the “NanoBRET Fold Response” value at HTR1F (HTR1F, other tracers/Aminopotentidine (unmodified), 0.1μM) worked out at 1.04; on HTR1F (HTR1F, other tracers/Aminopotentidine (unmodified), 1μM), 1.21.

On to `COc1ccccc1N1CCN(CCCCN2C(=O)c3ccc(CNC(=O)CCOCCOCCOCCOCCNC(=O)CCc4ccc5n4[B-](F)(F)[N+]4=C(c6ccc[nH]6)C=CC4=C5)cc3C2=O)CC1` [NAN-190-2-NB590], for which the “NanoBRET Fold Response” value at LGR5 (LGR5, tracer 0.1μM) was found to be 1.22; on LGR5 (LGR5, tracer 1μM), 0.83; on HTR1F (HTR1F, tracer 0.1μM) it was 1.29; at HTR1F (HTR1F, tracer 1μM) it was 2.39.

In the case of `CC(C)N(CC[C@H](c1ccccc1)c1cc(CCNC(=O)c2ccc(CNC(=O)CCc3ccc4n3[B-](F)(F)[N+]3=C(c5ccc[nH]5)C=CC3=C4)cc2)ccc1O)C(C)C` [Tolterodine-BZ-NB590], the “NanoBRET Fold Response” value amounted to 0.91 at LGR5 (LGR5, tracer 0.1μM); 0.89 at LGR5 (LGR5, tracer 1μM); 1.24 on HTR1F (HTR1F, tracer 0.1μM); 1.63 on HTR1F (HTR1F, tracer 1μM).
